# Source: patent US10201507B2, “Modulators of intracellular chloride concentration for treating fragile X syndrome” (NEUROCHLORE, priority 2012, dated 2019)
# Entries after “also recorded” stand apart in the source; their conditions may differ.
# Tests used:
# [1] = tested on: child with Fragile X syndrome; assay: Clinical case study, efficacy scales (ABC, GRAM, CGI); assay type: in vivo, human; conditions: after 90 days, 0.5 mg twice a day
# Procedure: This example is a case reports presenting the treatment by bumetanide of a child with Fragile X syndrome. Starting from the 5 Jan. 2011, the child received bumetanide twice a day (0.5 mg morning and 0.5 mg evening) during three months. Several biological tests were made at baseline (D0) and then after 7 days (D7), one month (M1), two months (M2) and three months (M3) of treatment. They checked orthostatic hypotension, allergy, cramps, asthenia, diarrhea, myalgia, arthralgia, vertigo and nausea. Blood tests included γ-glutamyltransferase, transaminases, alkaline phosphatases, glycemia, uric acid and creatine, in addition to blood Na^+ and K^+. Efficacy of the treatment was measured at baseline (D0) and after three months of treatment (M3) using the GRAM scale ([…] Regulation Adaptation Modulation) for analyzing the dysregulation of the activity in a child; the ABC scale (Aberrant Behavior Checklist) for assessing problem behaviors of children and adults with mental retardation; and the CGI scale (Clinical Global Impression) for assessing the clinical amelioration in a patient following a therapeutic treatment.
# FXS mice = assay: Isolation-induced ultrasonic vocalizations (USVs) at P8 after maternal pretreatment; assay type: in vivo, mouse
# Source text: To induce ultrasonic vocalizations, mouse pups were isolated individually from their mother on postnatal day 8, and were placed into an isolation box (23×28×18 cm) located inside a sound attenuating isolation cubicle (54×57×41 cm; Coulbourn Instruments, Allentown, Pa., USA), and evaluated for ultrasonic vocalizations during a three minute test. An ultrasound microphone (Avisoft UltraSoundGate Condenser microphone capsule […] Bioacoustics, Berlin, Germany), placed in the roof of the box, was sensitive to frequencies of 10 to 250 kHz. Vocalizations were recorded using the Avisoft Recorder software (version 4.2) with a sampling rate of 250 kHz in 16 bit format. For acoustical analysis, recordings were transferred to SASLab Pro (version 5.2; Avisoft Bioacoustics) and a fast Fourier transformation was conducted (512 FFT-length, 100% frame, Hamming window and 75% time window overlap). The accuracy of call detection was verified manually by an educated user. A Pearson correlation coefficient was computed to assess the relationship between Automatic and Manual analysis. There was 0.99 correlations between the two variables. A t postnatal day 8, waveform patterns of calls were examined in 45 sonograms from 4 groups of mice (WT, FXS, WT pretreated, FXS pretreated). Each call was identified as one of 10 distinct categories, and only the sonograms where mice emitted at least 50 calls were used for this evaluation. To test whether depolarizing actions of GABA were associated with neuronal excitation, the effect of the GABAA receptor agonist isoguvacine was tested. […] To test whether maternal treatment with bumetanide before delivery switches the action of GABA from excitatory to inhibitory in offsprings at P15, pregnant females were treated orally 1 day before delivery with bumetanide (2-2.5 mg/kg in drinking water) and juvenile offspring neurons recorded at P15. […] Therefore, excitatory actions of GABA during delivery produce long term deleterious effects on electrophysiological parameters of FXS juvenile neurons. In FXS mice, GABAergic inputs are excitatory and contribute to hyperexcitability of the network. Bumetanide decreases [Cl^-]i and consequently reduces contribution of excitatory GABAergic inputs in the overall network activity. Isolation and Ultrasonic vocalizations were induced in mice to determine behavioral effect of Bumetanide in a model of FXS. An increased probability of emitting downward and chevron calls in FXS pups than age matched WT (P8). This was rescued by maternal bumetanide pretreatment (FIG. 4, table 3). Therefore, elevated [Cl^-]i levels during delivery are involved in the pathogenesis of Fragile X syndrome.
# CA3 pyramidal cells = assay: Single GABAA channel recordings of driving force of GABA (DFGABA) in hippocampal slices, drug applied to slice; assay type: cell-based, mouse
# Procedure: Mice lacking Fmr1 (referred to as Fmr1^−/−) were bred in our animal facility. […] For all experiments, Fmr1^−/− mice were used with wild-type littermates as a control group. The offspring were used for experiments at E18, P0, P2, P4, P7, P9, P15 and P30. Experiments were carried out on offspring of either sex and in a blind manner at E18 and P0.
# Experiments were performed on fetuses and neonatal wild type and Fragile X mice from the embryonic day […] to the postnatal day P38 (term is E21). All of the research was performed in compliance with the national guidelines on human care and use of laboratory animals and approved by INSERM.
# Hippocampal slices (300-500 μm thick) were prepared using a Microm tissue slicer (International GmbH, Germany) as described previously (Tyzio et al., 2006, 2008). Slices were kept in oxygenated (95% O2/5% CO2) artificial cerebrospinal fluid (ACSF) of the following composition (in mM): NaCl 126, KCl 3.5, CaCl2 2.0, MgCl2 1.3, NaHCO3 25, NaH2PO4 1.2 and glucose 11 (pH 7.4) at room temperature (20-22° C.) at least 1 hour before use.
# For recordings, slices were placed into a conventional fully submerged chamber superfused with ACSF at a rate of 2-3 ml/min at room temperature. Patch clamp recordings from visually identified CA3 pyramidal cells in cell-attached configuration were performed using EPC-10 amplifier (HEKA Elektronik Dr. Schulze GmbH, Lambrecht/Pfalz, Germany). Patch pipette solution for recordings of single GABAA channels contained (in mM): NaCl 120, KCl 5, TEA-Cl 20, 4-aminopyridine 5, CaCl2 0.1, MgCl2 10, glucose 10, Hepes-NaOH 10 buffered to pH 7.2-7.3 and GABA 2 μM. Analysis of currents through single channels and current-voltage relationships were performed using Clampfit 9.2 (Axon Instruments, Union City, Calif.). Recordings were digitized (10 kHz) online with Digidata-1200 interface card (Axon Instruments, Union City, Calif.) and analyzed offline with Axon package, MiniAnalysis (S (Synaptsoft, Decatur, Ga.), and Origin (Microcal Software, Northampton, Mass.). […]
structure (smiles),measurement,setting,value
CCCCNc1cc(C(=O)O)cc(S(N)(=O)=O)c1Oc1ccccc1 [bumetanide],CGI result,[1],2
same,ABC results (Aberrant Behavior Checklist),[1]; baseline 41,27
same,GRAM results,[1]; baseline 56,31
same,"Chevron calls, isolation-induced USVs",FXS mice; P8 FXS mice,0.6 ± 0.1 (n = 13)
same,"Downward calls, isolation-induced USVs",FXS mice; P8 FXS mice,10.2 ± 1.4 (n = 13)
same,Increased probability of downward and chevron calls (in words),FXS mice; P8 FXS pups,rescued
same,"Chevron calls, isolation-induced USVs",FXS mice; P8 WT mice,0.5 ± 0.3 (n = 9)
same,"Downward calls, isolation-induced USVs",FXS mice; P8 WT mice,13.5 ± 2.8 (n = 9)
same,Effect on DFGABA (in words),"CA3 pyramidal cells; FXS neurons at P0 (birth), oxytocin 1 μM",shift it to hyperpolarization; also recorded: fully blocked the depolarising DFGABA
same,Effect on DFGABA (in words),CA3 pyramidal cells; wild type pyramidal cells at P0,increases hyperpolarization
